Test results as given in US20030186943A1, “Substituted gamma-phenyl-delta-lactams and uses related thereto” (Inflazyme Pharmaceuticals Ltd., priority 1998, published 2003).
Read-outs that look alike come from different tables or passages of the source.

Columns and labels:
[1] = system: cAMP response element luciferase activity in human U937 monocytic cells; experiment: Potentiation of forskolin-induced CRE-luciferase activity in U937 cells; format: cell-based; conditions: U-937, U937 cells co-incubated with 10 μM forskolin, 4 hours, X marks this range
Description: Compounds of the present invention were thereby shown to provide potentiated luciferase expression in U937 cells treated with the adenylyl cyclase activator forskolin.
Human pro-monocytic U937 cells were maintained in RPMI medium containing 10% FCS and 2 mM […]. U937 cells were transiently transfected as described in Biotechniques Vol. 17(6):1058, 1994. Briefly, cells were grown in medium containing serum to a density of 5×10^6 cells/mL and then resuspended in media containing serum at a density of approximately 1×10^7 cells/mL. 400 μL of cells were transferred into the electroporation cuvette containing 10 μg of the reporter vector (PCRE-luc) in a volume of 40 μL H2O. Reporter vector DNA was prepared from DH5α E. coli using the DNA […] free kit (Qiagen) as per manufacturers instructions. U937 cells were clectroporated at room temperature using a BIORAD electroporator. Capacitance was set to 1050 μF and voltage was 280V. The time constant was noted after each electroporation. Cells were then diluted in 4 mL of media and serum and 200 μL of cells were plated per well. Cells were allowed to recover for 16-18 hours. Cells were then treated with a test compound or vehicle in the presence or absence of 10 μM forskolin for 4 hours at 37° C.
The luciferase assay was performed as per manufacturers instructions (Tropix). Briefly, cells were centrifuged for 4 minutes at 1200 rpm and media supernatant was removed. Cell pellets were lysed in 15 μL Lysis buffer (Tropix). Luciferase assay was performed using 10 μL of cell lysate with 10 μL of buffer A and 25 μL buffer B. Luciferase activity was obtained using a luminometer with a 5-second delay followed by a read time of 10 seconds.

[2] = target: T1, cAMP phosphodiesterase 3 from human platelets (Homo sapiens, UniProt Q14432); experiment: Inhibition of cAMP phosphodiesterase 3 from human platelets; format: biochemical; conditions: PDE3, platelet cell extract, X marks this range
T1 construct: from tissue; host or cells: human platelets, cytoplasmic extract
Description: Compound 12 was screened for activity against 5 of the major classes of mammalian cyclic nucleotide phosphodiesterase (termed PDE 1 through 5). PDE's 1 through 4 utilize cAMP as substrate while PDE 5 uses cGMP. The broad specificity PDE inhibitor 3-isobutyl-1-methylxanthine (IBMX; Sigma; Catalogue No. 17018)) was used as a positive control in all assays. PDE's for the various assays were partially purified from the following cells/tissues; PDE 1 (bovine heart), PDE 2 (human platelets), PDE 3 (human platelets), PDE 4 (human promonocytic U937 cells) and PDE 5 (human platelets).
Platelet cell extracts were prepared as described above for the U937 cells. The PDE3 assay was performed using platelet cell extract as described above for the PDE 4 assay. Platelets contain PDE 2, 3 and 5. However PDE2 and 5 preferentially utilize cGMP, so in an assay with cAMP as a substrate they are not detected.

[3] = system: primary human neutrophils; experiment: Generation of reactive oxygen species by fMLP-activated neutrophils (luminol-enhanced chemiluminescence); format: cell-based; conditions: Neutrophil
Description: Neutrophil activation can be measured by quantitation of ROS generated in vitro. Measurement of ROS allows specific quantitation of a pro-inflammatory species and is also a general measure of neutrophil activation. The most sensitive method for measuring the production of ROS by neutrophils is luminol-enhanced chemiluminescence. […] The assay system used to evaluate the ability of compounds to inhibit ROS generation in neutrophils is indicative of anti-inflammatory activity that may be efficacious in disease states including but not limited to rheumatoid arthritis and inflammatory bowel disease.
Freshly isolated primary human neutrophils (5×10^6 cells/mL) were incubated with the required concentrations of compound or vehicle for 30 minutes at 37° C. in HBSS buffer (pH 7.4) containing Ca^2+. 100 nM wortmannin was used as a positive control. Aliquots of each sample were transferred to a microtitre plate to which luminol (1 μM); obtained from Sigma; Catalogue No. A8511 is added. Activation of the neutrophils was immediately initiated by addition of (1 μM) fMLP; obtained from Sigma, Catalogue No. F3506. Light output from each well was recorded for 30 minutes in a microplate luminometer. Total light output (integral of the time-course) was determined for each well. Inhibitory activities of test drugs against neutrophil ROS generation is expressed as percentage activity relative to a no drug control (100% activation or generation of ROS) containing 0.25% DMSO. Concentration of test compound required to inhibit the generation of ROS to 50% of control values (IC50's) were determined from concentration-response curves by non-linear regression analysis.

[4] = system: primary human neutrophils; experiment: fMLP-induced human neutrophil chemotaxis; format: cell-based; conditions: fMLP-induced chemotaxis, X marks this range
Description: Chemotaxis buffer containing the chemoattractant fMLP (10 μM) was added to each well of a chemotaxis plate and a filter was inserted ensuring contact between the filter and the chemotaxis buffer in the well. A submaximal concentration of chemoattractant was used which had been determined in previous experiments. […] Freshly isolated neutrophils (1×10^6) were incubated with vehicle (0.125% DMSO)±test compound for 1 hr at 37° C. Treatment and control cell suspensions were then gently resuspended and 20 μL of cells was added to the top side of the filter on each well. The plate was incubated for 1.5 hours at 37° C. under 5% CO2. Cells were then removed from the top side of the filter by aspiration and the entire plate was centrifuged. The filter was removed and known concentrations of cells were added to unused wells to prepare a standard curve. XTT (Sigma; Catalogue No. X 4251)/PMS (Sigma; Catalogue No. P 7626) solution prepared in buffer was added to each well and the cells were further incubated 1-2 hours and measured for absorbance at 450 nm. Absorbance values were converted to cell numbers using the standard curve. IC50 values are averages from at least three separate experiments with triplicate determinations.

[5] = system: High Affinity Rolipram Binding Site of PDE4 in Mouse Brain; experiment: Displacement of [3H]-rolipram from its high affinity binding site (HARBS); conditions: ratio of IC50 for PDE4 catalytic activity to concentration displacing 50% of rolipram from HARBS
Description: Suspension was centrifuged twice at 30,000×G at 4° C. and the supernatant discarded. The pellet was resuspended in buffer, and adjusted to a protein concentration of 0.5 mg/mL. Drugs to be tested were dissolved in DMSO and pipetted in triplicate into a 96 well microplate at concentrations ranging from 1 to 30,000 nM. […] The plate was incubated at 4° C. for 1 hour. Contents of the plate were aspirated through a Whatman GF/C filterplate, and rinsed with 4×200 μL ice-cold buffer. […] Triplicate determinations were performed at each concentration.

[6] = system: Resiniferitoxin-induced mouse ear edema; experiment: Resiniferitoxin-induced mouse ear edema; format: in vivo; conditions: CD1 mice; for inhibition in vivo at 100 mg/kg: ip, intraperitoneal administration
Description: One of the primary characteristics of inflammation is an increase in vascular dilation and permeability leading to the extravasation of, and collection of fluids in, the interstitium, resulting in redness and swelling. Rheumatoid arthritis in particular is characterized by pronounced edema of affected joints resulting in significant pain and stiffness. The mouse ear inflammation model is a standard in vivo assay for inflammation that is based on an increase in ear weight which is attributable to edema induced by inflammatory mediators. RTX (resiniferitoxin; Sigma; Catalogue No. R 8756)) is a diterpene isolated from the plant Euphorbia poisonii and is an ultrapotent analog of capsaicin. RTX acts by selectively stimulating nociceptive and thermal-sensitive nerve ending in tissue, eliciting neurogenic edema. Compounds of the present invention, whether administered topically, intraperitoneally or orally, inhibited development of edema induced by topical application of RTX.
Mice (CD1, Charles River Laboratories) were separated into groups (n—5−8) and tagged. Control mice had RTX (0.1 μg/ear) applied topically to the inner and outer sides of the left ear and vehicle applied to the right ear as a control. For topical administration, experimental/treatment mice received RTX+test compound solution (50 μg/ear) on the left ear and acetone on the right ear. For intraperitoneal (i.p.) administration, 100 mg/kg test compound dissolved in 100 μL PEG 200:saline (1:1) was injected followed by a 30 minute waiting period then the standard 30 minute RTX edema induction. For oral (p.o.) administration, 10 mg/kg test compound in 100 μL PEG-200 was given to animals, then edema induced using 0.1 μg/ear RTX after a 1.5 hour waiting period. After edema induction, mice were sacrificed, and a standard disc of ear tissue was removed. Each disk of tissue was immediately weighed to the nearest 1/10th of a mg. Data were analyzed by taking the difference of each left ear from the right ear, calculating the mean+/−SEM. Statistical significance was tested by 2-sample t-test on the left/right ear weight differences of the control group vs. the experimental group.

[7] = read-out: IC50 range (μM) 10-100
[8] = read-out: IC50 RANGE (μM) <1, ROS production, X marks this range
[9] = read-out: EC50 range (μM) 0.1-1
[10] = Mus musculus, topical administration, 50 μg/ear, RTX 0.1 μg/ear
[11] = ROS production, X marks this range, read-out: IC50 RANGE (μM) 10-100
[12] = read-out: IC50 RANGE (μM) >100, ROS production, X marks this range

T1 sequence (Q14432 whole entry): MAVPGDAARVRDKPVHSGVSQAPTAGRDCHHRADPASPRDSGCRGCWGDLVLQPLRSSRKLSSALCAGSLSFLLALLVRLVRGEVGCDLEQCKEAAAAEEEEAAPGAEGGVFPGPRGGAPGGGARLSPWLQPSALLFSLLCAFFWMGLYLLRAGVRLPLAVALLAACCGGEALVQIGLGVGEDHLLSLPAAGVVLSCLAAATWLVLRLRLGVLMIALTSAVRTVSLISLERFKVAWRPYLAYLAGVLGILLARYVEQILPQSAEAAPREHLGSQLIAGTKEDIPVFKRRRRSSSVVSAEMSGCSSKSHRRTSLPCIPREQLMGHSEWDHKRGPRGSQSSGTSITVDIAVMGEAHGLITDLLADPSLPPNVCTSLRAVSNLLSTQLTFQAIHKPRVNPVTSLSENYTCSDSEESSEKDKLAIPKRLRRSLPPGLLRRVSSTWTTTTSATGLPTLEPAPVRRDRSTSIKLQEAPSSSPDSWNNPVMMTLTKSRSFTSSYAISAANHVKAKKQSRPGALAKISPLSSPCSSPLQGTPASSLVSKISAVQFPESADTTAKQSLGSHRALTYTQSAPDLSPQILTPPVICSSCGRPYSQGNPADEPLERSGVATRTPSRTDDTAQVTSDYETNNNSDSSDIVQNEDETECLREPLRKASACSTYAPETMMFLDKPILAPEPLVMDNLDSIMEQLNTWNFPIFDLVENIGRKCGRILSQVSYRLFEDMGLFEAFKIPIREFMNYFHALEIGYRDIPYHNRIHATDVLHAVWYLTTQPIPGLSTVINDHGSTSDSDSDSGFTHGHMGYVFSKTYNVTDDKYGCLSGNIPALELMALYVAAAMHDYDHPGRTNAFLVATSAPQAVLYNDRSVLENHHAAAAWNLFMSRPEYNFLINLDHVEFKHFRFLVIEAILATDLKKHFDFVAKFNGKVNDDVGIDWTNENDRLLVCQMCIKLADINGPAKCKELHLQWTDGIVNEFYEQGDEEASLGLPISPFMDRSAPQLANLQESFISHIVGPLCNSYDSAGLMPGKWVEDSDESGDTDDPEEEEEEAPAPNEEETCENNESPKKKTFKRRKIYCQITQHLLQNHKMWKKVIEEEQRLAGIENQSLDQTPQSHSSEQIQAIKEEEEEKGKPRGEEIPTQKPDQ

Structure (SMILES)	EC50 ([1]; read-out: EC50 range (μM) 1-25) [µM]	IC50 [2, 7] [µM]	IC50 [3, 8] [µM]	PDE4:HARBS [5]	IC50 [2] [µM]	further results
CCCCOc1cc([C@@H]2CCC(=O)OC2)ccc1OC [Compound 99]	–	–	< 1	>1	> 100	EC50 [1, 9]: 0.1 to 1 µM; inhibition in vivo at 100 mg/kg ([6]; Mus musculus): 88%; inhibition in vivo at 50 µg/ear [6, 10]: 98%
COc1ccc([C@@H]2CCC(=O)OC2)cc1OCc1ccccc1 [Compound 92]	–	–	–	–	–	inhibition in vivo at 50 µg/ear [6, 10]: 93%
COc1ccc([C@@H]2CCC(=O)OC2)cc1OC(C)=O [Compound 103]	–	–	–	–	–	inhibition in vivo at 50 µg/ear [6, 10]: 94%
COc1cc(C[C@H]2C[C@@H](c3ccc(OC)c(OC)c3)COC2=O)ccc1O [Compound 29]	1 to 25	10 to 100	< 1	<1	–	IC50 ([4]; read-out: IC50 RANGE (μM) 10-100): 10 to 100 µM; inhibition in vivo at 50 µg/ear [6, 10]: 76%
COc1ccc([C@@H]2CCC(=O)NC2)cc1OC [Compound 46]	1 to 25	–	–	>1	> 100	IC50 [3, 11]: 10 to 100 µM
COc1cc(CC2C[C@@H](c3ccc(OC)c(OC4CCCC4)c3)COC2=O)ccc1OCc1ccccc1 (stereo partly shown) [Compound 42]	1 to 25	–	–	<1	> 100	IC50 [3, 11]: 10 to 100 µM; inhibition in vivo at 100 mg/kg ([6]; Mus musculus): 38%; inhibition in vivo at 10 mg/kg ([6]; Mus musculus, oral administration, 10 mg/kg): 41%
COc1ccc([C@@H](CO)CCC(=O)OC(C)(C)C)cc1OCc1ccccc1 [Compound 91]	–	–	–	–	–	% Inhibition of Edema ([6]; topical administration, 50 μg/ear, RTX 0.1 μg/ear): 27%
BrCc1ccc(OCc2ccccc2)c(OCc2ccccc2)c1 [Compound 78, 3,4-dibenzyloxy benzyl bromide]	–	–	–	–	–	inhibition in vivo at 50 µg/ear [6, 10]: 93%

Second part, led by results:

EC50 ([1]; read-out: EC50 range (μM) 1-25) [µM]	IC50 [2, 7] [µM]	IC50 [3, 8] [µM]	PDE4:HARBS [5]	IC50 [2] [µM]	Structure (SMILES)	further results
1 to 25	10 to 100	< 1	<1	–	COc1cc(C[C@@H]2C[C@H](c3ccc(OC)c(OC)c3)COC2=O)ccc1O [Compound 130]	IC50 ([4]; read-out: IC50 RANGE (μM) 1-10): 1 to 10 µM
1 to 25	10 to 100	–	<1	–	COc1ccc(CC2C[C@@H](c3ccc(OC)c(OC)c3)COC2=O)cc1 (stereo partly shown) [Compound 132]	IC50 [3, 12]: > 100 µM
–	–	–	<1	> 100	COc1ccc([C@H]2COC(=O)C(Cc3ccccc3[N+](=O)[O-])C2)cc1OC1CCCC1 (stereo partly shown) [Compound 174]	EC50 ([1]; read-out: EC50 range (μM) >25): > 25 µM; IC50 [3, 12]: > 100 µM
1 to 25	–	–	<1	> 100	COc1ccc([C@@H]2CCC(=O)OC2)cc1OC(C)C [Compound 155]	EC50 [1, 9]: 0.1 to 1 µM; IC50 ([3]; ROS production, X marks this range, read-out: IC50 RANGE (μM) 1-10): 1 to 10 µM
1 to 25	10 to 100	< 1	<1	–	COc1cc(CC2CC(c3ccc(OC)c(OC)c3)COC2=O)ccc1O (stereo not shown) [Compound 129]	IC50 ([4]; read-out: IC50 RANGE (μM) 1-10): 1 to 10 µM
1 to 25	–	< 1	<1	> 100	COc1ccc([C@H]2COC(=O)C(Cc3ccc(O)cc3)C2)cc1OC (stereo partly shown) [Compound 133]	–
1 to 25	10 to 100	< 1	<1	–	COc1ccc([C@H]2COC(=O)C(Cc3ccc(OC)c(OCc4ccccc4)c3)C2)cc1OC (stereo partly shown) [Compound 135]	–
–	–	< 1	1	> 100	C=C(C)COc1cc([C@@H]2CCC(=O)OC2)ccc1OC [Compound 156]	EC50 [1, 9]: 0.1 to 1 µM
–	–	–	<1	> 100	COc1ccc([C@H]2COC(=O)C(Cc3ccc(OCc4ccccc4)c(OCc4ccccc4)c3)C2)cc1OC (stereo partly shown) [Compound 79]	EC50 [1, 9]: 0.1 to 1 µM; IC50 [3, 12]: > 100 µM
1 to 25	10 to 100	–	<1	–	COc1cc(CC2C[C@@H](c3ccc(OC)c(OC4CCCC4)c3)CNC2=O)ccc1OCc1ccccc1 (stereo partly shown) [Compound 61]	IC50 [3, 12]: > 100 µM
–	–	< 1	>1	> 100	COc1ccc([C@@H]2CCC(=O)OC2)cc1OCC1CCC1 [Compound 157]	EC50 [1, 9]: 0.1 to 1 µM
